Data on two molecules can be found in patent US9212189B2, “Fluorescent probes for reactive sulfur species” (THE REGENTS OF THE UNIVERSITY OF CALIFORNIA, priority 2011, dated 2015).

This series relates to HEK293T cells. The series can be described thus: Confocal imaging of H2S detection in live HEK293T cells. In kind it is cell-based. Particulars: for intracellular fluorescence intensity after NaSH: 5 μM probe 30 min, then 250 μM NaSH 30 min, excitation 488 nm; for background response in untreated cells: absence of exogenous H2S; for cell viability over the course of the experiments: bright field images co-localized with Hoescht nuclear staining. Here is the method: HEK 293T cells were maintained in exponential growth as a monolayer in Dulbecco's Modified Eagle Medium (DMEM, Invitrogen) supplemented with 10% fetal bovine serum (FBS, Hyclone), and incubated at 37° C. in 5% CO2. One or two days before imaging, the cells were passaged and plated in phenol red-free medium on 4-well Lab-Tek borosilicate chambered coverglass slides (Nunc) and allowed to grow to 50-70% confluence. For all experiments, solutions of SF1 and SF2 were prepared in DMF (5 mM) and diluted into DMEM at the desired working concentrations (5 μM). NaSH was delivered from a stock solution of 25 mM in degassed (by bubbling N2 for ˜30 min) Dulbecco's Phosphate Buffered Saline (DPBS). Cells were treated with SF1 or SF2 for one hour, with NaSH (50-250 μM) or blank control added for the final 30 minutes. Images were collected at 30 min after NaSH addition. For nuclear imaging studies, cells were incubated with 1 μM Hoechst 33342 at 37° C. for 30 min prior to imaging.
Confocal Imaging Experiments. Confocal fluorescence imaging studies were performed with a Zeiss laser scanning microscope 710 with a 40× water objective lens, with Zen 2009 software (Carl Zeiss). SF1 and SF2 were excited using a 488 nm Ar laser, and emission collected using a META detector between 500 and 650 nm. Hoechst 33342 was excited with a 405 nm diode laser, and emission collected using a META detector between 450 and 500 nm. The cells were imaged at 37° C. and 5% CO2 throughout the course of the experiment. Image analysis was performed using ImageJ (National Institute of Health).
FIG. 6. Confocal images of H2S detection in live HEK293T cells using SF1 and SF2. (a) HEK293T cells incubated with SF1 for 60 min at 37° C. (b) HEK293T cells incubated with SF1 for 60 min at 37° C. with 250 μM NaSH added for the final 30 min. (c) Brightfield images of the same field of cells in (b) overlaid with images of 1 μM Hoescht stain at 37° C. (d) HEK293T cells incubated with SF2 for 60 min at 37° C. (e) HEK293T cells incubated with SF2 for 60 min at 37° C. with 250 μM NaSH added for the final 30 min. (f) Brightfield images of the same field of cells in (e) overlaid with images of 1 μM Hoescht stain at 37° C. Scale bars represent […].
FIG. 7. Mean fluorescence intensity of confocal images of H2S detected in live HEK293T cells treated with 0, 50, 100, and 250 μM H2S. (a) HEK293T cells were incubated with SF1 for 60 min at 37° C. with the indicated amount of H2S added for the final 30 min. (b) HEK293T cells were incubated with SF2 for 60 min at 37° C. with the indicated amount of H2S added for the final 30 min. Data represent the mean fluorescence intensity of distinct fields (n=4). Error bars are ±s.e.m.

The structures appear in SMILES notation.

On to `CC(C)(C)OC(=O)Nc1ccc2c(c1)Oc1cc(N=[N+]=[N-])ccc1C21OC(=O)c2ccccc21` (stereo not drawn) [SF1, Sulfidefluor-1], for which the “intracellular fluorescence intensity after NaSH” value is “patent increase in intracellular fluorescence intensity”, the “background response in untreated cells” value is recorded as “little background response” and the “cell viability over the course of the experiments” value is reported as “confirm the cell viability”. Where the note is “live HEK293T cells”, the cellular permeability result is “exceptional cellular permeability”.
Regarding `[N-]=[N+]=Nc1ccc2c(c1)Oc1cc(NC(=O)N3CCOCC3)ccc1C21OC(=O)c2ccccc21` (stereo not drawn) [SF2, Sulfidefluor-2], the “intracellular fluorescence intensity after NaSH” value is listed as “patent increase in intracellular fluorescence intensity”, the “background response in untreated cells” value is “little background response” and the “cell viability over the course of the experiments” value is listed as “confirm the cell viability”. Where the note is “live HEK293T cells”, the cellular permeability entry was “exceptional cellular permeability” and the “staining of cellular nuclei” value is “significant staining of the cellular nuclei”.
